The source made the active and inactive calls. No cut-off for these calls is given here.
Legend:
Leishmania infantum [1] = assay: (§1) Antiparasitic activity against Leishmania infantum MHOM/MA/67/ITMAP-263 promastigote expressing Escherichia coli beta-galactosidase assessed as reduction in parasitic growth using CPRG as substrate preincubated with compound for 72 hrs followed by substrate addition and measured after 10 mins by Spectrophotometric analysis; type: functional, organism-based
RAW264.7 [2] = assay: Immunomodulatory activity in mouse RAW264.7 cells assessed as decrease in TNF production at 1 to 4 times IC50 incubated for 24 to 144 hrs by flow cytometric analysis; type: functional, cell-based; details: time 24-144 hrs
Mitochondrial membrane [3] = assay: Induction of mitochondrial membrane depolarization in trypomastigote form of Trypanosoma cruzi Y at IC50 incubated for 24 hrs by Rhodamine 123 staining based flow cytometric analysis; type: cell membranes
[4] = Acute toxicity in male Swiss-Webster mouse infected with Trypanosoma cruzi Y assessed as mortality at 5 to 200 mg/kg, po measured after 48 hrs; type: organism-based; details: in vivo, dose 5-200 mg/kg
Trypanosoma cruzi [5] = assay: Antiparasitic activity against trypomastigote form of Trypanosoma cruzi Y assessed as appearance of filamentous structures scattered across the membrane by Electron micrographic analysis; type: functional, organism-based
Trypanosoma cruzi [6] = assay: (§2) Antiparasitic activity against trypomastigote form of Trypanosoma cruzi Tulahuen expressing Escherichia coli beta-galactosidase infected in mouse L929 cells assessed as reduction in parasitic growth using CPRG as substrate pretreated with compound for 96 hrs followed by substrate addition and measured after 16 to 20 hrs by Spectrophotometric analysis; type: functional, organism-based
Trypanosoma cruzi [7] = assay: as §2, with “amastigote” for “trypomastigote”; type: functional, organism-based
Cell membrane = assay: Induction of cell membrane damage in trypomastigote form of Trypanosoma cruzi Y assessed as decrease in red fluorescence intensity incubated for 24 hrs by acridine orange staining based flow cytometric analysis; type: subcellular
[8] = Acute toxicity in male Swiss-Webster mouse infected with Trypanosoma cruzi Y assessed as side effects at 5 to 200 mg/kg, po measured after 48 hrs; type: organism-based; details: in vivo, dose 5-200 mg/kg
[9] = Toxicity in male Swiss mouse infected with Trypanosoma cruzi Y trypomastigotes assessed as mortality at 100 mg/kg/day, po pre-infected with parasite followed by compound addition and measured after 5 to 9 days relative to control; type: organism-based; details: in vivo, time 5-9 day; for Activity: po, 100 mg/kg
Trypanosoma cruzi [10] = assay: Antiparasitic activity against Trypanosoma cruzi Y trypomastigotes infected in male Swiss mouse assessed as reduction in parasitemia at 100 mg/kg/day, po pre-infected with parasite followed by compound addition and measured at 1 to 5 days post-infection by microscopic analysis; type: functional, organism-based; details: time 1-5 day
[11] = Selectivity index, ratio of CC50 for mouse L929 cells to IC50 for antiparasitic activity against trypomastigote and amastigote form of Trypanosoma cruzi Tulahuen expressing Escherichia coli beta-galactosidase infected in mouse L929 cells; type: toxicity; details: read-out: Selectivity Index
RAW264.7 [12] = assay: Immunomodulatory activity in mouse RAW264.7 cells assessed as increase in IL-6 production at 1 to 4 times IC50 incubated for 24 to 144 hrs by flow cytometric analysis; type: functional, cell-based; details: time 24-144 hrs
[13] = Selectivity index, ratio of CC50 for mouse RAW264.7 cells to IC50 for antiparasitic activity against Leishmania infantum amastigote expressing Escherichia coli beta-galactosidase infected in mouse RAW264.7 cells; type: toxicity; details: read-out: Selectivity Index
Trypanosoma cruzi [14] = assay: Antiparasitic activity against trypomastigote form of Trypanosoma cruzi Y assessed as appearance of ruptured cells with cytoplasmic content leakage by Electron micrographic analysis; type: functional, organism-based
Trypanosoma cruzi [15] = assay: Antiparasitic activity against trypomastigote form of Trypanosoma cruzi Y assessed as appearance of twisted bodies by Electron micrographic analysis; type: functional, organism-based
[16] = Acute toxicity in female Swiss-Webster mouse infected with Trypanosoma cruzi Y assessed as side effects at 5 to 200 mg/kg, po measured after 48 hrs; type: organism-based; details: in vivo, dose 5-200 mg/kg
Leishmania amazonensis [17] = assay: (§3) Antiparasitic activity against Leishmania amazonensis amastigote expressing Escherichia coli beta-galactosidase infected in mouse RAW264.7 cells assessed as reduction in parasitic growth using CPRG as substrate preincubated with compound for 24 hrs followed by substrate addition and measured after 2 to 6 hrs by Spectrophotometric analysis; type: functional, organism-based
[18] = Cytotoxicity against mouse RAW264.7 cells assessed as inhibition of cell viability incubated for 48 hrs by MTT assay; type: toxicity, cell-based
[19] = Cytotoxicity against mouse L929 cells assessed as inhibition of cell viability incubated for 96 hrs by MTT assay; type: toxicity, cell-based
Leishmania amazonensis [20] = assay: as §1, with “amazonensis WHOM/00 LTB 0016” for “infantum MHOM/MA/67/ITMAP-263”; type: functional, organism-based
Trypanosoma cruzi [21] = assay: Antiparasitic activity against trypomastigote form of Trypanosoma cruzi Y assessed as appearance of swollen cells with cytoplasmic content leakage by Electron micrographic analysis; type: functional, organism-based
[22] = Selectivity index, ratio of CC50 for mouse RAW264.7 cells to IC50 for antiparasitic activity against Leishmania amazonensis amastigote expressing Escherichia coli beta-galactosidase infected in mouse RAW264.7 cells; type: toxicity; details: read-out: Selectivity Index
Leishmania infantum [23] = assay: as §3, with “infantum” for “amazonensis”; type: functional, organism-based; details: Leishmania infantum, RAW264.7; read-out: IC50
RAW264.7 [24] = assay: Immunomodulatory activity in mouse RAW264.7 cells assessed as decrease in IL-10 production at 1 to 4 times IC50 incubated for 24 to 144 hrs by flow cytometric analysis; type: functional, cell-based; details: time 24-144 hrs
Trypanosoma cruzi [25] = assay: Antiparasitic activity against trypomastigote form of Trypanosoma cruzi Y assessed as presence of bubbles by Electron micrographic analysis; type: functional, organism-based
[26] = Selectivity index, ratio of CC50 for mouse RAW264.7 cells to IC50 for antiparasitic activity against Leishmania infantum MHOM/MA/67/ITMAP-263 promastigote expressing Escherichia coli beta-galactosidase; type: toxicity; details: read-out: Selectivity Index
[27] = Acute toxicity in female Swiss-Webster mouse infected with Trypanosoma cruzi Y assessed as mortality at 5 to 200 mg/kg, po measured after 48 hrs; type: organism-based; details: in vivo, dose 5-200 mg/kg
Trypanosoma cruzi [28] = assay: Antitrypanosomal activity against trypomastigote form of Trypanosoma cruzi Y assessed as induction of apoptosis at 1 times IC50 by measuring early apoptosis incubated for 24 hrs by Annexin V-FITC/7-AAD staining based flow cytometric analysis relative to control; type: functional
Mitochondrial membrane [29] = assay: Induction of mitochondrial membrane hyperpolarization in trypomastigote form of Trypanosoma cruzi Y at IC50 incubated for 24 hrs by Rhodamine 123 staining based flow cytometric analysis; type: cell membranes
Trypanosoma cruzi [30] = assay: Antitrypanosomal activity against trypomastigote form of Trypanosoma cruzi Y assessed as induction of apoptosis at 2 times IC50 by measuring necrotic cells incubated for 24 hrs by Annexin V-FITC/7-AAD staining based flow cytometric analysis relative to control; type: functional
Trypanosoma cruzi [31] = assay: Antitrypanosomal activity against trypomastigote form of Trypanosoma cruzi Y assessed as induction of apoptosis at 2 times IC50 by measuring late apoptotic cells incubated for 24 hrs by Annexin V-FITC/7-AAD staining based flow cytometric analysis relative to control; type: functional
RAW264.7 [32] = assay: Immunomodulatory activity in mouse RAW264.7 cells assessed as nitric oxide formation at 1 to 4 times IC50 incubated for 72 hrs by Griess reagent based Spectrophotometric analysis; type: functional, cell-based
Trypanosoma cruzi [33] = assay: Antitrypanosomal activity against trypomastigote form of Trypanosoma cruzi Y assessed as induction of apoptosis at 2 times IC50 by measuring early apoptosis incubated for 24 hrs by Annexin V-FITC/7-AAD staining based flow cytometric analysis relative to control; type: functional
Trypanosoma cruzi [34] = assay: Antiparasitic activity against trypomastigote form of Trypanosoma cruzi Y assessed as appearance of membrane rupture by Electron micrographic analysis; type: functional, organism-based
[35] = Selectivity index, ratio of CC50 for mouse RAW264.7 cells to IC50 for antiparasitic activity against Leishmania amazonensis WHOM/00 LTB 0016 promastigote expressing Escherichia coli beta-galactosidase; type: toxicity; details: read-out: Selectivity Index
[36] = Leishmania infantum, MHOM/MA/67/ITMAP-263, read-out: IC50
[37] = Leishmania amazonensis, RAW264.7, read-out: IC50
[38] = Leishmania amazonensis, WHOM/00 LTB 0016, read-out: IC50

SMILES | Activity (RAW264.7 [2]) | Activity [4] | Activity (Trypanosoma cruzi [5]) | IC50 (Trypanosoma cruzi [6]) [µM] | IC50 (Trypanosoma cruzi [7]) [µM] | Activity (Cell membrane) | Activity [8] | Activity [9] | Activity (Trypanosoma cruzi [10]) | selectivity ratio [11] | Activity (RAW264.7 [12]) | selectivity ratio [13] | Activity (Trypanosoma cruzi [14]) | Activity (Trypanosoma cruzi [15]) | Activity [16] | CC50 at 48 h [18] [µM] | CC50 at 96 h [19] [µM] | Activity (Trypanosoma cruzi [21]) | IC50 (Leishmania infantum [23]) [µM] | Activity (RAW264.7 [24]) | other results
COc1ccc(-c2cs/c(=N/N=C(\C)c3cccnc3)[nH]2)cc1 | inactive | Non-toxic | Dose-dependent-effect | 0.3 | 0.3 | Dose-dependent-effect | Non-toxic | Toxic | inactive | 64.7 | Active | 0.2 | Dose-dependent-effect | Dose-dependent-effect | Non-toxic | 16.6 | 19.4 | Dose-dependent-effect | 92.6 | Active | IC50 (Leishmania infantum [1]; [36]): 174 µM; Activity (Mitochondrial membrane [3]): Active; IC50 (Leishmania amazonensis [17]; [37]): 7.7 µM; IC50 (Leishmania amazonensis [20]): Not_active; selectivity ratio [22]: 2.2; Activity (Trypanosoma cruzi [25]): Dose-dependent-effect; selectivity ratio [26]: 0.1; Activity [27]: Non-toxic
C/C(=N\Nc1nc(-c2cccc([N+](=O)[O-])c2)cs1)c1cccnc1 | inactive | Non-toxic | Dose-dependent-effect | 0.4 | 0.4 | Dose-dependent-effect | Non-toxic | Toxic | inactive | 284 | Active | 0.4 | Dose-dependent-effect | – | Non-toxic | 35.3 | 114 | Dose-dependent-effect | 93.8 | Active | Activity (Trypanosoma cruzi [28]): 29.2%; IC50 (Leishmania infantum [1]): Not_active; Activity (Mitochondrial membrane [29]): Active; Activity (Trypanosoma cruzi [30]): 2.31%; IC50 (Leishmania amazonensis [17]; raw264.7): Not_active; Activity (Trypanosoma cruzi [31]): 9.39%; Activity (RAW264.7 [32]): Active; IC50 (Leishmania amazonensis [20]): Not_active; Activity (Trypanosoma cruzi [25]): Dose-dependent-effect; Activity (Trypanosoma cruzi [33]): 7.55%; Activity [27]: Non-toxic
O=C(Cn1ccnc1[N+](=O)[O-])NCc1ccccc1 [BENZNIDAZOLE] | – | – | – | 4.2 | 4.2 | – | – | – | Active | 494 | Active | – | – | Active | – | – | 2070 | – | – | Active | mortality ([9]; male, Swiss, read-out: Activity): 100%; Activity (Trypanosoma cruzi [34]): Active
C/C(=N\Nc1nc(-c2ccccc2)cs1)c1cccnc1 | Active | Non-toxic | Dose-dependent-effect | 0.4 | 0.4 | Dose-dependent-effect | Non-toxic | Toxic | inactive | 531 | Active | 0.2 | Dose-dependent-effect | Dose-dependent-effect | Non-toxic | 18.3 | 212 | Dose-dependent-effect | 103 | Active | IC50 (Leishmania infantum [1]; [36]): 5.4 µM; Activity (Mitochondrial membrane [3]): Active; IC50 (Leishmania amazonensis [17]; [37]): 9.9 µM; IC50 (Leishmania amazonensis [20]; [38]): 128 µM; selectivity ratio [22]: 1.9; selectivity ratio [35]: 0.1; Activity (Trypanosoma cruzi [25]): Dose-dependent-effect; selectivity ratio [26]: 3.4; Activity [27]: Non-toxic
C/C(=N\N=c1\scc(-c2ccccc2)n1C)c1cccnc1 | Active | Non-toxic | Dose-dependent-effect | 0.3 | 0.3 | Dose-dependent-effect | Non-toxic | Toxic | inactive | 11.7 | Active | 0.7 | Dose-dependent-effect | Dose-dependent-effect | Non-toxic | 5.5 | 3.5 | Dose-dependent-effect | 8.4 | Active | Activity (Trypanosoma cruzi [28]): 29.4%; IC50 (Leishmania infantum [1]; [36]): 5.2 µM; Activity (Mitochondrial membrane [29]): Active; Activity (Trypanosoma cruzi [30]): 2.36%; IC50 (Leishmania amazonensis [17]; [37]): 9.4 µM; Activity (Trypanosoma cruzi [31]): 3.04%; Activity (RAW264.7 [32]): Active; IC50 (Leishmania amazonensis [20]; [38]): 7.1 µM; selectivity ratio [22]: 0.6; selectivity ratio [35]: 0.8; Activity (Trypanosoma cruzi [25]): Dose-dependent-effect; Activity (Trypanosoma cruzi [33]): 61.6%; selectivity ratio [26]: 1.1; Activity [27]: Non-toxic

Source: ChEMBL document CHEMBL6121008, “New series of 3-pyridyl-1,3-thiazoles: In vitro and in vivo anti-Trypanosomatidae profile, in vitro and in silico mechanism of action approach” (Eur J Med Chem, 2025)
